Reference: BindingDB's records for doi:10.1016/j.chembiol.2005.08.008 (Gpc Biotech, 2005)

Key:
[1] = biological target: T1, Cyclin-dependent kinase 2/G1/S-specific cyclin-E1 (Homo sapiens, UniProt P24941); test: Inhibition Assay
Text: (§1) In vitro kinase activity of PEGylated pyrazolopyrimidone CDK inhibitor or a 5 PEG-amine was coupled to ReactiGel agarose beads (Pierce, No. 20259).

[2] = biological target: T2, Cyclin-dependent kinase 4/G1/S-specific cyclin-D1 (Homo sapiens, UniProt P11802); test: Inhibition Assay
Text: as §1

[3] = biological target: T3, Cyclin-dependent kinase/G2/mitotic-specific cyclin- 1 (Homo sapiens, UniProt P06493); test: Inhibition Assay
Text: as §1

[4] = biological target: T3, Cyclin-dependent kinase/G2/mitotic-specific cyclin- 1; test: Cell Proliferation Assay
Text: Inhibition of HCT116 cell proliferation with compounds using calcein AM Assay.

[5] = biological target: T1, Cyclin-dependent kinase 2/G1/S-specific cyclin-E1; test: In Vitro Kinase Assay
Text: (§2) Inhibition of in vitro kinase activity of purified CDKs.

[6] = biological target: T2, Cyclin-dependent kinase 4/G1/S-specific cyclin-D1; test: In Vitro Kinase Assay
Text: as §2

[7] = biological target: T3, Cyclin-dependent kinase/G2/mitotic-specific cyclin- 1; test: In Vitro Kinase Assay
Text: as §2

[8] = biological target: T3, Cyclin-dependent kinase/G2/mitotic-specific cyclin- 1; test: Cell Proliferation Assay; remark: listed apart in the source
Experimental: Inhibition of HCT116 cell proliferation after 72hr of incubation with compounds was determined by SRB Assay.

[9] = biological target: T4, CDK-activating kinase assembly factor MAT1 (Homo sapiens, UniProt P51948); test: In Vitro Kinase Assay
T4 sequence (P51948 whole entry): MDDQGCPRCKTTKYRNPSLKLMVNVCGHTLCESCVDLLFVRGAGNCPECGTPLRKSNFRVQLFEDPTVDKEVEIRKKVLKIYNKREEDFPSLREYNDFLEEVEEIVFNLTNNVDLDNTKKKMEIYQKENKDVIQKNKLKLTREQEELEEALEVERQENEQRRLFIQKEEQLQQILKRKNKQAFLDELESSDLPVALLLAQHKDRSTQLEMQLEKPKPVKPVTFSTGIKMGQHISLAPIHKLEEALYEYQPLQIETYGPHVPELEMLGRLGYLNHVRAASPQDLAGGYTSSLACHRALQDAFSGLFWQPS
Text: as §2

CDK3/Cyclin E = CDK3/Cyclin E (Homo sapiens, UniProt Q00526); test: In Vitro Kinase Assay
Text: as §2

[10] = biological target: Cyclin-dependent kinase 5 (Homo sapiens, UniProt Q00535); test: In Vitro Kinase Assay
Text: as §2

[11] = biological target: Cyclin-dependent kinase 6/G1/S-specific cyclin-D3 (Homo sapiens, UniProt Q00534); test: In Vitro Kinase Assay
Text: as §2

[12] = biological target: Glycogen synthase kinase-3 beta (Homo sapiens, UniProt P49841); test: In Vitro Kinase Assay
Sequence of Glycogen synthase kinase-3 beta (P49841 whole entry): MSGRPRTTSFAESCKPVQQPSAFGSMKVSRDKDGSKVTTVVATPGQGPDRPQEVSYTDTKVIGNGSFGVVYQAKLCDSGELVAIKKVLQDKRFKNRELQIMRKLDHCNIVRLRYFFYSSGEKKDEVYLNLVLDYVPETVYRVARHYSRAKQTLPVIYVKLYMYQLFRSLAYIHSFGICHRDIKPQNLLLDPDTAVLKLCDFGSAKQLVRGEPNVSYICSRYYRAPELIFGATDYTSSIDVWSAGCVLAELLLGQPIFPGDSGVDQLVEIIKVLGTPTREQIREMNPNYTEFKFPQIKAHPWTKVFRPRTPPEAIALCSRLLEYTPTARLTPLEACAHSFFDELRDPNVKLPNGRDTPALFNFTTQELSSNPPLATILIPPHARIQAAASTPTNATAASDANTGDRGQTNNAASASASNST

T3 sequence (P06493 whole entry): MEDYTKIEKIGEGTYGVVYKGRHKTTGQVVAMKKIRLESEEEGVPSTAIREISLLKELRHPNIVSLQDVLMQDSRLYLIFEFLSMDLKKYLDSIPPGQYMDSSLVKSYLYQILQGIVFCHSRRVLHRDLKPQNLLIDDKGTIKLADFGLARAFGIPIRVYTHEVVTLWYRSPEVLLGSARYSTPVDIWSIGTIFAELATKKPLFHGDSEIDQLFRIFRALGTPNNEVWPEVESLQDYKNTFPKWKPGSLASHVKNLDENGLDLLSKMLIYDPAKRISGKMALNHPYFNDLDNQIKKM
T3 sequence (P14635 whole entry, further chain): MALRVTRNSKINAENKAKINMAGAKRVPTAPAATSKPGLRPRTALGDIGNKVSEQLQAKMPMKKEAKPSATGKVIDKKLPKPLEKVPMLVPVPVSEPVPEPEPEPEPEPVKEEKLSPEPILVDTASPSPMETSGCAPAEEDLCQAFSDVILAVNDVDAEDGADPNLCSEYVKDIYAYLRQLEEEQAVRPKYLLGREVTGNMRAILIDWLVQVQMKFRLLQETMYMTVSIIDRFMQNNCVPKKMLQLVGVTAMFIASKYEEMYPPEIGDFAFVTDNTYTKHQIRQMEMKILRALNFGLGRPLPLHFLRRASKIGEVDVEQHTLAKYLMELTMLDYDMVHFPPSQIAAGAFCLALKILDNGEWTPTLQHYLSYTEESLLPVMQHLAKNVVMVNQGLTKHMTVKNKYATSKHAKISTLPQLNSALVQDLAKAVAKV
T2 sequence (P11802 whole entry): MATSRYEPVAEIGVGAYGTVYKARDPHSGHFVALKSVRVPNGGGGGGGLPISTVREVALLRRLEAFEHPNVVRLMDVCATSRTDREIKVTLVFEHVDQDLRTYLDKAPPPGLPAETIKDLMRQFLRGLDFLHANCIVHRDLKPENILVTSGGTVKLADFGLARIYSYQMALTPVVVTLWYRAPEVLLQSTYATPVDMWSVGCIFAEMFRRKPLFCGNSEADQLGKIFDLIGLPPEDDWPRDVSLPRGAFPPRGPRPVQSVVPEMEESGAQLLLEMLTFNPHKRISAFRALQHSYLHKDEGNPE
T2 sequence (P24385 whole entry, further chain): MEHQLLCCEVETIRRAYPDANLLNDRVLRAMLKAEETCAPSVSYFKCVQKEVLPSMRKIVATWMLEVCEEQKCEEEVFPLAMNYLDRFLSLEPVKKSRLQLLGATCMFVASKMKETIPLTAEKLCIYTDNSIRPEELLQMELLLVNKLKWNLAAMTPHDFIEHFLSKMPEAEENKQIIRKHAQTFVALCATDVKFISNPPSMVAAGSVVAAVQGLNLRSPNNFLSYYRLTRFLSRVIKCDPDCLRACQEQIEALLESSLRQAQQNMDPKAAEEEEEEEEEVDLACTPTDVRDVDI
Sequence of CDK3/Cyclin E (P24864 whole entry): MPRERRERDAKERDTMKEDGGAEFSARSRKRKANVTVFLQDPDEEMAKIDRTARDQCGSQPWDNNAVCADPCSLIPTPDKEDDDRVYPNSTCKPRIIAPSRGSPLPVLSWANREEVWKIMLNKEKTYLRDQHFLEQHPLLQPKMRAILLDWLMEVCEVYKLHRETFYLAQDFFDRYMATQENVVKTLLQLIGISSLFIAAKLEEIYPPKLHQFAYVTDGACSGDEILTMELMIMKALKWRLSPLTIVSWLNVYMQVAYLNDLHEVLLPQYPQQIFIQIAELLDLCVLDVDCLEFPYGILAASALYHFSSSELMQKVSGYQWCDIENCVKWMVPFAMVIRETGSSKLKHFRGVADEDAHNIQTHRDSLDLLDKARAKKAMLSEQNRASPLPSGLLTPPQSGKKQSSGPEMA
Sequence of CDK3/Cyclin E (Q00526 whole entry): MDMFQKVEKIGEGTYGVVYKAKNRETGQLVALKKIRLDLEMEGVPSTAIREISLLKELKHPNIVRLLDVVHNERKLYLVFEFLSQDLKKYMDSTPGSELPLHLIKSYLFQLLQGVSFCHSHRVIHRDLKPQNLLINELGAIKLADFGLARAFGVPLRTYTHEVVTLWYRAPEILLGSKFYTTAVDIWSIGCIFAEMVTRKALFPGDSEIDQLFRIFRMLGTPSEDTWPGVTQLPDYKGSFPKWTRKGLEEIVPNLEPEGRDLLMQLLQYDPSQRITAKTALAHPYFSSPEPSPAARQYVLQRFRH
Sequence of Cyclin-dependent kinase 5 (Q00535 whole entry): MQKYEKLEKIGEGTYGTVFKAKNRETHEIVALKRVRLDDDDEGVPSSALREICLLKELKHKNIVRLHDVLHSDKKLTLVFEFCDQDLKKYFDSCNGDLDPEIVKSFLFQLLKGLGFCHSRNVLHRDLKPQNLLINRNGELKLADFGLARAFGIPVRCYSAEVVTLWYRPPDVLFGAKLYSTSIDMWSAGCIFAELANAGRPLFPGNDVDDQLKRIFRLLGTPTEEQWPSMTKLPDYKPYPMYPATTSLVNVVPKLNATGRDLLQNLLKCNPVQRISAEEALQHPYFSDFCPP
Sequence of Cyclin-dependent kinase 6/G1/S-specific cyclin-D3 (Q00534 whole entry): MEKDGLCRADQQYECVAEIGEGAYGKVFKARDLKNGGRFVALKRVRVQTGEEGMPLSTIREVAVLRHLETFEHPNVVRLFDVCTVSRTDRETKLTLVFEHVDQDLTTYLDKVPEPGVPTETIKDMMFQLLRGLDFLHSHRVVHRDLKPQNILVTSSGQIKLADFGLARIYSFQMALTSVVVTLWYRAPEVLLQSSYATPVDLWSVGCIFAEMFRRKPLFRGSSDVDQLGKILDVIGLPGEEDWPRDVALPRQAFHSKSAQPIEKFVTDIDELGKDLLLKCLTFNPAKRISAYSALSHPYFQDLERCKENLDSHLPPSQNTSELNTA
Sequence of Cyclin-dependent kinase 6/G1/S-specific cyclin-D3 (P30281 whole entry, further chain): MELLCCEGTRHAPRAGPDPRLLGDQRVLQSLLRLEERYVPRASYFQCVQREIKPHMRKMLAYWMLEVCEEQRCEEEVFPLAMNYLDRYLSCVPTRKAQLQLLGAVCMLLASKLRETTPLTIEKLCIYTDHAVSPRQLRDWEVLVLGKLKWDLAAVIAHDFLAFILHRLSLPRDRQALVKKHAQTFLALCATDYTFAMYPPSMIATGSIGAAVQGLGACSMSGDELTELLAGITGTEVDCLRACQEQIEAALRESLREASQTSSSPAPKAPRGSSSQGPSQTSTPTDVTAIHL

Row | Compound | IC50 [5] [nM] | IC50 [6] [nM] | IC50 [7] [nM] | IC50 [8] [nM] | further results
1 | COCCOCCOCCOc1ccc(Cc2nc3c(c(C(C)C)nn3-c3c(Cl)cccc3Cl)c(=O)[nH]2)cc1 [PEGylated derivative, RGB-286276] | – | – | – | – | IC50 [1]: 22 nM; IC50 [2]: 890 nM; IC50 [3]: 84 nM; IC50 [4]: 34 nM
2 | COc1ccc(Cc2nc3c(c(C(C)C)nn3-c3c(Cl)cc(Cl)cc3Cl)c(=O)[nH]2)cc1 [Pyrazolopyrimidone analog, RGB-285940] | 7 | 858 | 230 | 410 | –
3 | CC(C)c1nn(-c2c(Cl)cccc2Cl)c2nc(Cc3ccc(OCCN4CCOCC4)cc3)[nH]c(=O)c12 [Pyrazolopyrimidone analog, RGB-285960] | 9 | 1750 | 310 | 64 | –
4 | CC(C)c1nn(-c2c(Cl)cccc2Cl)c2nc(Cc3ccc(OCCO)cc3)[nH]c(=O)c12 [Pyrazolopyrimidone analog, RGB-286147] | 15 | 839 | 48 | 51 | IC50 [9]: 71 nM; IC50 (CDK3/Cyclin E): 9 nM; IC50 [10]: 10 nM; IC50 [11]: 282 nM; IC50 [12]: 754 nM
5 | COc1ccc(Cc2nc3c(c(C(C)C)nn3-c3c(Cl)cccc3Cl)c(=O)[nH]2)cc1 [Pyrazolopyrimidone analog, RGB-286331] | 4 | – | 43 | 220 | –
6 | COc1ccc(Cc2nc3c(cnn3-c3c(Cl)cc(Cl)cc3Cl)c(=O)[nH]2)cc1 [Pyrazolopyrimidone analog, RGB-310590] | – | – | – | 5500 | –
7 | COc1ccc(Cc2nc3c(c(Cc4ccccc4)nn3-c3c(Cl)cc(Cl)cc3Cl)c(=O)[nH]2)cc1 [Pyrazolopyrimidone analog, RGB-310591] | – | – | – | > 10000 | –
8 | COc1ccc(Cc2nc3n[nH]c(C(C)C)c3c(=O)[nH]2)cc1 [Pyrazolopyrimidone analog, RGB-310595] | – | – | – | > 10000 | –
9 | COc1ccc(Cc2nc3c(c(C(C)C)nn3-c3ccccc3)c(=O)[nH]2)cc1 [Pyrazolopyrimidone analog, RGB-310596] | – | – | – | > 10000 | –
